Experimental data: US6403055B1, “Diagnostic imaging contrast agent with improved in serum relaxivity” (Dibra S.p.A., priority 1996, dated 2002)

Experiments:
[1] = Relaxivity (r1, r2) in saline; type: physicochemical; details: NaCl 0.15M in water - pH 7.3 - 20 MHz - 39° C.
From the text: (§1) Relaxivity values of the contrast agent of the present invention have been tested either in saline or in human serum obtained by Seronorm™ Human, freeze-dried human serum produced by Nycomed Pharma AS, Oslo, Norway. Serum obtained from said Seronorm™ is substantially equivalent to the fresh one, so its use in the relaxivity determination grants a good picture of the “in vivo” behaviour and, further, an excellent reproducibility of this test.

[2] = Relaxivity (r1, r2) in human serum (Seronorm™ Human); type: physicochemical; details: Between 0 and 1 mM (Seronorm™ Human) - 20 MHz - 39° C.
From the text: as §1
The compounds object of the present invention are characterised by very high r1 and r2 relaxivity values. When measured in Seronorm™ Human at 20 MHz, at a temperature of 39° C., and at a concentration comprised from 0 to 1 mM, the compounds of the present invention have r1 relaxivity equal to or, preferably, higher than 15 s^−1mm^−1.

SMILES: CCC(C)C(C(=O)[O-])N(CCN(CCN(CC(=O)[O-])C(C(=O)[O-])C(C)CC)[C@H](C(=O)[O-])[C@@H](C)CC)CC(=O)[O-].[Gd+3].[Na+].[Na+] (relative stereo) [Compound 2, [[[1S-[1R*(1R*,2R*),2R*]]-N,N-Bis[2-[(carboxymethyl)(1-carboxy-2-methylbutyl)amino]ethyl]-L-isoleucinate-(5-)]gadolinate(2-)]disodium salt.]
- Relaxivity Saline r1 [1]: 5.07 mM⁻¹ s⁻¹
- Relaxivity Serum r1 [2]: 11.9 mM⁻¹ s⁻¹
